Reference: ChEMBL document CHEMBL1201862, “PubChem BioAssay data set” (2004)
Activity calls are given as the source filed them.

Experiments:
[1] = MIN6 cell viability loss – mouse insulinoma, cytotoxicity control, dose response (AID 2122); type: functional;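 also: confirmatory high-throughput counterscreen run to flag cytotoxic compounds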
Protein skinhead-1 = molecular target: T1, Protein skinhead-1 (Caenorhabditis elegans, UniProt P34707); type: functional
T1 sequence (P34707 whole entry): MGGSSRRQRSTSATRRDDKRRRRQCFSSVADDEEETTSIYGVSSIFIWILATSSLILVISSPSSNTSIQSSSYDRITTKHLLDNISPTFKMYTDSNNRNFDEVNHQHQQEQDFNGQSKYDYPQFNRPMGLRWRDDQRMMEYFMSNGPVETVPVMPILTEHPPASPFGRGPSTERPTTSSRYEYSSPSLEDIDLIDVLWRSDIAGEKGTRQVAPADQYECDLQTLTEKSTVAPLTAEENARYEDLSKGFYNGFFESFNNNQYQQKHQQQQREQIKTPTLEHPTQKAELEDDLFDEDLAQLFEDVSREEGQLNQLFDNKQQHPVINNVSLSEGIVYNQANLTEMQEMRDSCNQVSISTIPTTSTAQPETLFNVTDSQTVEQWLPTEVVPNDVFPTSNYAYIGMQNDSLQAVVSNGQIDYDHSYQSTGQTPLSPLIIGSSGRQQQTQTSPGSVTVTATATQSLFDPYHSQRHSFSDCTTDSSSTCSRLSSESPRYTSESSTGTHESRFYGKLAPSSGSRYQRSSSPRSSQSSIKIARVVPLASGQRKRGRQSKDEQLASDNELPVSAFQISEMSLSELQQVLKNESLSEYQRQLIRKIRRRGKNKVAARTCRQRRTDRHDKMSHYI

[2] = viability of PTEN-deleted HCT116 cells – cell-based, HCT116 PTEN knockout, dose response (AID 1047); type: functional;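 also: HCT116 colon tumor cells with PTEN knocked out; cells exposed to compound for 60 hours before readout; potency for loss of cell viability measured by luminescence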
[3] = viability of HCT116 lacking mutant beta-catenin – cell-based, human colon tumor, dose response (AID 1045); type: functional;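 also: HCT116 colon tumor cells with beta catenin knocked out; cells exposed to compound for 60 hours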
[4] = decrease of insulin promoter-GFP reporter – imaging, high-content screening, mouse beta cells (AID 1628); type: functional; settings: MIN6
[5] = molecular target: Glucose-6-phosphate 1-dehydrogenase (Homo sapiens, UniProt P11413); test: inhibition of Homo sapiens G6PD, dose series – biochemical, fluorescence, selectivity assay for P. falciparum G6PD inhibitor project, dose response (AID 504792); type: functional
Sequence of Glucose-6-phosphate 1-dehydrogenase (P11413 whole entry): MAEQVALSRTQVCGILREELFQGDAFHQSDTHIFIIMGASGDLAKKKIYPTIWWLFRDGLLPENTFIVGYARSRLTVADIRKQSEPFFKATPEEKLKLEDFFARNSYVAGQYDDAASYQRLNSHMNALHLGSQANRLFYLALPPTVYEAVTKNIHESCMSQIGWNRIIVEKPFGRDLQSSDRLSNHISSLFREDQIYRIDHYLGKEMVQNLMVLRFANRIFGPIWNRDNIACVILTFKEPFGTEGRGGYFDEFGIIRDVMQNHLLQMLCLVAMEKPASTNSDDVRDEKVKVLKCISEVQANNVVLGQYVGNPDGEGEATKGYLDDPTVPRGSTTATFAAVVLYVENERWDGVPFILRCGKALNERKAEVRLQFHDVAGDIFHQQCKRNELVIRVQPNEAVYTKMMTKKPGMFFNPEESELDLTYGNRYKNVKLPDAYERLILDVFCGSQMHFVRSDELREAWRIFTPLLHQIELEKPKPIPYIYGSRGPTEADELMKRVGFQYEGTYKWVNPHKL

[6] = molecular target: Induced myeloid leukemia cell differentiation protein Mcl-1 (Homo sapiens, UniProt Q07820); type: functional
Sequence of Induced myeloid leukemia cell differentiation protein Mcl-1 (Q07820 whole entry): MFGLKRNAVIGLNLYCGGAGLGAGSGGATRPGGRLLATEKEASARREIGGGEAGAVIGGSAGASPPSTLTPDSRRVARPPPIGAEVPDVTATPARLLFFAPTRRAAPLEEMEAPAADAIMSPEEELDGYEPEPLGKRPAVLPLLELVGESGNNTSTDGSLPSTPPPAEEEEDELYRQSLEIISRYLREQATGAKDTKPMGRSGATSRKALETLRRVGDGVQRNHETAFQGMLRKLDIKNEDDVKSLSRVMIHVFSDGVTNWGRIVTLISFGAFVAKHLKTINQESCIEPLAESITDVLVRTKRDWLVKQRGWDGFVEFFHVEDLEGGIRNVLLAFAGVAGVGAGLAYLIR

Vero [7] = test: cells; type: functional; settings: Chlorocebus sabaeus
[8] = Luminescence Cell-Based Dose Retest to Confirm Inhibitors of Cancer Stem Cells. [Related pubchem assays (depositor defined):AID2717, AID2721]; type: functional; settings: Homo sapiens
Vero [9] = test: cells; type: functional, cell-based; settings: Chlorocebus sabaeus
Estrogen receptor beta [10] = molecular target: T2, Estrogen receptor beta (Homo sapiens, UniProt Q92731);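 also: recombinant ER-beta bound to coactivator SRC1 peptide in presence of estradiol agonist; inhibitors block coactivator peptide binding and lower the FRET signal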
T2 sequence (Q92731 whole entry): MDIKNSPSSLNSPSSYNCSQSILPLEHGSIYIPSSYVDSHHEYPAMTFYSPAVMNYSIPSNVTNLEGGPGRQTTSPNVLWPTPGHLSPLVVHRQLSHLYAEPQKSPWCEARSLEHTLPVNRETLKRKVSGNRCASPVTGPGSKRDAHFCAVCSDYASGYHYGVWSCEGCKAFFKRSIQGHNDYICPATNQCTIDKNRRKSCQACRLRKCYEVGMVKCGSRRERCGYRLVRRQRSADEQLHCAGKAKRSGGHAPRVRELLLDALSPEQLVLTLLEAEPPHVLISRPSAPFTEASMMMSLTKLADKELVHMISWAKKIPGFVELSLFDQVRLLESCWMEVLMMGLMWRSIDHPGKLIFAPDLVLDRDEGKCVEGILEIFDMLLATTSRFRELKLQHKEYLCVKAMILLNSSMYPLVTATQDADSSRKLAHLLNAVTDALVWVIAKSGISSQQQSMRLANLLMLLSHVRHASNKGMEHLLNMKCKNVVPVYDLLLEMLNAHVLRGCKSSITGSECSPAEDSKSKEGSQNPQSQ

Estrogen receptor beta [11] = molecular target: T2, Estrogen receptor beta; test: blockers of SRC-3 recruitment to ERβ – biochemical, ELISA, streptavidin-HRP readout, orthogonal assay, confirmation (AID 1060)
[12] = molecular target: FAD-linked sulfhydryl oxidase ALR (Homo sapiens, UniProt P55789); test: ALR-catalysed DTT oxidation blockers – biochemical, H2O2 detection, luminescence, cherry-pick, dose response (AID 493248)
Sequence of FAD-linked sulfhydryl oxidase ALR (P55789 whole entry): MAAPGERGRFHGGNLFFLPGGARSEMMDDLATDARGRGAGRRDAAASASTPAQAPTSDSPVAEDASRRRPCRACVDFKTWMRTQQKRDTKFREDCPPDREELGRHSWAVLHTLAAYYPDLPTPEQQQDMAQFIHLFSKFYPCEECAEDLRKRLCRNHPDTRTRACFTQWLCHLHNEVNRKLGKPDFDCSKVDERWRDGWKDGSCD

cells = type: functional
[13] = molecular target: T3, Microphthalmia-associated transcription factor (Homo sapiens, UniProt O75030); test: reducers of TRPM1 reporter luminescence, concentration series – cell-based, SK-MEL-5, cherry-picked, set 3, MITF inhibitor project, dose response (AID 493073); type: functional;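 also: SK-MEL-5 melanoma cells with luciferase driven by the MITF target TRPM1 promoter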
T3 sequence (O75030 whole entry): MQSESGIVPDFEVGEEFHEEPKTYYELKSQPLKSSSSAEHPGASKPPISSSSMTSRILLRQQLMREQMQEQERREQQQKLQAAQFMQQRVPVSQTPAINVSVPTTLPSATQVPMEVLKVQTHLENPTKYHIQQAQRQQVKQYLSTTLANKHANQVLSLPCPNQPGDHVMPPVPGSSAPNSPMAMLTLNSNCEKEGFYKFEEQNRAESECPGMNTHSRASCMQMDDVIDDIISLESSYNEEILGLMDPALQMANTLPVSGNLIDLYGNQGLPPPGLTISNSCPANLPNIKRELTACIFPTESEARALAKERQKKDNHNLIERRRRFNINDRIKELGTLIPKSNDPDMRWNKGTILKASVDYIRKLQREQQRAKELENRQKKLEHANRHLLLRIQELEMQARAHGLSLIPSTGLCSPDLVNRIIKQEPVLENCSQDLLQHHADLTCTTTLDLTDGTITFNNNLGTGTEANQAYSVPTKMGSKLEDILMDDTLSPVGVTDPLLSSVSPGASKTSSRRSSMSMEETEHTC

[14] = molecular target: T4, Histone-lysine N-methyltransferase NSD2 (Homo sapiens, UniProt O96028); type: biochemical
T4 sequence (O96028 whole entry): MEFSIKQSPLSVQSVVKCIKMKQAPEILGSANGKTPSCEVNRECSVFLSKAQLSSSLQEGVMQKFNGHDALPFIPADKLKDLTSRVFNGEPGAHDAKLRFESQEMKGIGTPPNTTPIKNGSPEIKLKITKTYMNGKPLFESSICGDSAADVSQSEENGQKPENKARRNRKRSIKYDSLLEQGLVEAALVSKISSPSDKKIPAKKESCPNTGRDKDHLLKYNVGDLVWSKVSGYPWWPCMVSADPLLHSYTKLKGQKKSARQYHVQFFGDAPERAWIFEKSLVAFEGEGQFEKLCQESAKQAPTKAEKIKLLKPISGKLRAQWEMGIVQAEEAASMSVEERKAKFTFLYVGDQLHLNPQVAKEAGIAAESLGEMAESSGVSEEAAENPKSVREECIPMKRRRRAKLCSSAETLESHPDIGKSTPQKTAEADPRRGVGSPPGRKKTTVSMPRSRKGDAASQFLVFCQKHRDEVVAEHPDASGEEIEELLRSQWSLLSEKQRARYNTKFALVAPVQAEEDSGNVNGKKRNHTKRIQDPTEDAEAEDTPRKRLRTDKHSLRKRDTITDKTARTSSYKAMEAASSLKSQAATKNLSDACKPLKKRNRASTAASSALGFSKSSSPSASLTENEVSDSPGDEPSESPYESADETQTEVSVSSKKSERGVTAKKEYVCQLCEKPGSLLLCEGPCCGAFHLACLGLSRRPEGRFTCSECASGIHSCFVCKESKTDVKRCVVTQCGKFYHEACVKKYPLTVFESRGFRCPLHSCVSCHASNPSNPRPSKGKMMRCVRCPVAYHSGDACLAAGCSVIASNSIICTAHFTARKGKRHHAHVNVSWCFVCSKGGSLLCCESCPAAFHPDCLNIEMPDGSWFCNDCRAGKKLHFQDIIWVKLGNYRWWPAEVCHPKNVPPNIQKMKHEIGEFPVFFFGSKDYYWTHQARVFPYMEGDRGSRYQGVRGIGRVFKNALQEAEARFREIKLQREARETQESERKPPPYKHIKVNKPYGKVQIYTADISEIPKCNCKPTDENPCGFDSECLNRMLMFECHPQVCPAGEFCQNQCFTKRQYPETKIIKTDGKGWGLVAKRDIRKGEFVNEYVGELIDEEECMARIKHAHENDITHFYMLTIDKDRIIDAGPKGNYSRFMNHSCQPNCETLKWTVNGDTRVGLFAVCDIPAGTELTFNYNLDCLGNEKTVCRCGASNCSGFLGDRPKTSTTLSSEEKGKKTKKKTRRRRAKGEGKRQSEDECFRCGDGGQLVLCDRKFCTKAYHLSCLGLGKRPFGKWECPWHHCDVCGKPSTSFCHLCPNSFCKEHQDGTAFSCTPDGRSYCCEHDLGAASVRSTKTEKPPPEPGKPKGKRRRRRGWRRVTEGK

[15] = THP-1 cell cytotoxicity, dose response, cytotoxicity control for non-replicating M. tuberculosis project (AID 489025); type: functional
A-375 = test: proliferation inhibition in MITF-low A375 cells – cell-based, cherry-pick samples, set 2, counter-screen for MITF modulator project, dose response (AID 540335); type: functional; settings: Homo sapiens
[16] = molecular target: Dual specificity protein kinase CLK1 (Homo sapiens, UniProt P49759); test: inhibition of human CLK1 activity – biochemical, cherry-picked samples, selectivity assay for Dyrk1A inhibitor project, dose response (AID 588811)
Sequence of Dual specificity protein kinase CLK1 (P49759 whole entry): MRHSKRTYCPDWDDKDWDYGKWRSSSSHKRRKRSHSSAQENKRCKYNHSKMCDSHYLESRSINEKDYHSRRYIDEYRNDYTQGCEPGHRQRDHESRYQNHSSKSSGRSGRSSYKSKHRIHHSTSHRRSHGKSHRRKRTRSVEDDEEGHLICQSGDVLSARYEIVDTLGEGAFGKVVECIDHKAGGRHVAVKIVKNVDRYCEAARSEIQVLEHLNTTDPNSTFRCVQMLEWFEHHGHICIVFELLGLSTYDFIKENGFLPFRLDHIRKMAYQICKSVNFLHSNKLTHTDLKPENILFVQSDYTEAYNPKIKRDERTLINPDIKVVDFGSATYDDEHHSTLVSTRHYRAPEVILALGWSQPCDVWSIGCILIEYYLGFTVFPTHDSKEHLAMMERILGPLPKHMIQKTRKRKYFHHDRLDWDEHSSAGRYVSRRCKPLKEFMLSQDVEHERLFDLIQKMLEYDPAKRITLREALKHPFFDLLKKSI

Cytochrome P450 3A4 = Cytochrome P450 3A4 (Homo sapiens, UniProt P08684);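 also: CYP3A4 tested as one member of a cytochrome P450 panel screen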
Sequence of Cytochrome P450 3A4 (P08684 whole entry): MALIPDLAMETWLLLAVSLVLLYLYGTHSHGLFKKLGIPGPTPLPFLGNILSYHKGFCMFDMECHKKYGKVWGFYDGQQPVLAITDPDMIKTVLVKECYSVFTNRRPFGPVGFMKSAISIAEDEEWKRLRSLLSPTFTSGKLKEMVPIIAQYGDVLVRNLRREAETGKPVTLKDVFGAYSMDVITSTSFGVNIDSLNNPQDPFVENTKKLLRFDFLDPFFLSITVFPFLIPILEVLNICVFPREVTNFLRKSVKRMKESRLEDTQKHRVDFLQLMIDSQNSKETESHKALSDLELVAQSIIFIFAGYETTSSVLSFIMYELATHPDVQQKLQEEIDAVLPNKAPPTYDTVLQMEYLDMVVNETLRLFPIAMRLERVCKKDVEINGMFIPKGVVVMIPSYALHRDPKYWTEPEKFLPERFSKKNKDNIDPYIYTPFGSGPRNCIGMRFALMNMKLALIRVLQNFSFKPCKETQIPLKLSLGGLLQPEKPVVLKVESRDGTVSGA

Cytochrome P450 1A2 = molecular target: T5, Cytochrome P450 1A2 (Homo sapiens, UniProt P05177);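 also: PubChem cytochrome P450 panel assay, CYP1A2 panel member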
T5 sequence (P05177 whole entry): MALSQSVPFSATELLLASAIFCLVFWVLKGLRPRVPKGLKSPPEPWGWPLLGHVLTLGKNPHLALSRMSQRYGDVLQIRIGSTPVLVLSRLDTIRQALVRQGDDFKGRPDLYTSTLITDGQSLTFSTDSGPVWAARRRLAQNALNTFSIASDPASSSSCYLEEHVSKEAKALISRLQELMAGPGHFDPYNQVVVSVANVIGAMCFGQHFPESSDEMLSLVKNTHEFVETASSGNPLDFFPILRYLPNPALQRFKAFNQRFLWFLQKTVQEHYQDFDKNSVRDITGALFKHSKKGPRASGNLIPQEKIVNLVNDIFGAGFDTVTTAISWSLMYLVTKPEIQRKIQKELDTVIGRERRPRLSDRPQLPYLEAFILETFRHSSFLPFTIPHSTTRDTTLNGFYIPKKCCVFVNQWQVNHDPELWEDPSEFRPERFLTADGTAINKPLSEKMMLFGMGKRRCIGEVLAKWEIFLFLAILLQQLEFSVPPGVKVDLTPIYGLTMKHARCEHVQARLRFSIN

Cytochrome P450 2C19 = Cytochrome P450 2C19 (Homo sapiens, UniProt P33261); test: Cytochrome panel assay with activity outcomes. Panel member name: p450-cyp2c19 Compounds with AC50 equal or less than 10 uM are considered active; type: functional; settings: read-out: AC50
[17] = microbe, parasite or virus in culture; type: functional; settings: Mycobacterium tuberculosis
[18] = Trypanosoma cruzi growth suppression in host cells – NIH3T3 host cells, beta-gal luminescence, confirmation (AID 2044); type: functional, cell-based;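 also: intracellular parasites grown in NIH/3T3 mouse fibroblasts as host cells; luminescent beta-galactosidase reporter signal from transgenic T. cruzi replicating inside host cells; inhibitors lower the luminescence signal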
[19] = NIH3T3 cell viability loss – ATP luminescence, mouse fibroblasts, counter-screen, dose response (AID 2010); type: functional, cell-based;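 also: cells exposed to compound for about 90 hours before reading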
Cytochrome P450 2C9 = Cytochrome P450 2C9 (Homo sapiens, UniProt P11712)
Sequence of Cytochrome P450 2C9 (P11712 whole entry): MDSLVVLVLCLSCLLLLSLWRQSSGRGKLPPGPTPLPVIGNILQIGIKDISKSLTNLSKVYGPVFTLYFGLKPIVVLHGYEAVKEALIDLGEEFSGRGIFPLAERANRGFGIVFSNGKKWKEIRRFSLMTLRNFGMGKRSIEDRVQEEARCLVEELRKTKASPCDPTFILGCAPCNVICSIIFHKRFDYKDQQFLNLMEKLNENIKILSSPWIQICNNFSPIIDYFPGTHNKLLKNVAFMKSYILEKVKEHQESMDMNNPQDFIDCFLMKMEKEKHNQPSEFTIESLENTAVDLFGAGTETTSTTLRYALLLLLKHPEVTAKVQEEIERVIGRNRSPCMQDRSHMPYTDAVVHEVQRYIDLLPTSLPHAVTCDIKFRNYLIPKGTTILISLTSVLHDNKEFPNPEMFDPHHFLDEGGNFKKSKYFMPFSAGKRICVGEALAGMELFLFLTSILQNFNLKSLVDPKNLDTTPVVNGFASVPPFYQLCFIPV

Prothrombin = Prothrombin (Homo sapiens, UniProt P00734); test: Thrombin 1536 HTS Dose Response Confirmation. [Related pubchem assays: 1046 (Thrombin 1536 HTS; hits were confirmed in this assay)]; type: functional
[20] = molecular target: T6, Adenosylmethionine-8-amino-7-oxononanoate aminotransferase (Mycobacterium tuberculosis, UniProt P9WQ81); test: Mycobacterium tuberculosis BioA enzyme inhibitor Measured in Biochemical System Using Plate Reader - 2163-02_Inhibitor_Dose_CherryPick_Activity.; type: functional, Mycobacterium tuberculosis UT205
T6 sequence (P9WQ81 whole entry): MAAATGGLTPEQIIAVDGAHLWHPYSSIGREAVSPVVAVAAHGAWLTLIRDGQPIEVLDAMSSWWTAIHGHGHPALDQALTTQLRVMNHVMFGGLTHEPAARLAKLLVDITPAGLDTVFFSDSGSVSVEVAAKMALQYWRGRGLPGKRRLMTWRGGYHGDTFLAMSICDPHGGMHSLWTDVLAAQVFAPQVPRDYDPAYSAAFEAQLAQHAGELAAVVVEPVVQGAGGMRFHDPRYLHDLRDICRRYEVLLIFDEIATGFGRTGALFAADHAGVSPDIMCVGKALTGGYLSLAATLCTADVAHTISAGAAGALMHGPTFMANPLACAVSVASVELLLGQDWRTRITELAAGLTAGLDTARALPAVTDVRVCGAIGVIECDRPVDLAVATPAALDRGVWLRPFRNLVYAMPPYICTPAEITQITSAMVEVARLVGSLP

[21] = molecular target: Ras and Rab interactor 1/Tyrosine-protein kinase ABL1 (Homo sapiens, UniProt P00519+Q13671); type: functional;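 also: biochemical TR-FRET dose-response test measuring inhibition of binding between Rin1 and Abl proteins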
Sequence of Ras and Rab interactor 1/Tyrosine-protein kinase ABL1 (P00519 whole entry): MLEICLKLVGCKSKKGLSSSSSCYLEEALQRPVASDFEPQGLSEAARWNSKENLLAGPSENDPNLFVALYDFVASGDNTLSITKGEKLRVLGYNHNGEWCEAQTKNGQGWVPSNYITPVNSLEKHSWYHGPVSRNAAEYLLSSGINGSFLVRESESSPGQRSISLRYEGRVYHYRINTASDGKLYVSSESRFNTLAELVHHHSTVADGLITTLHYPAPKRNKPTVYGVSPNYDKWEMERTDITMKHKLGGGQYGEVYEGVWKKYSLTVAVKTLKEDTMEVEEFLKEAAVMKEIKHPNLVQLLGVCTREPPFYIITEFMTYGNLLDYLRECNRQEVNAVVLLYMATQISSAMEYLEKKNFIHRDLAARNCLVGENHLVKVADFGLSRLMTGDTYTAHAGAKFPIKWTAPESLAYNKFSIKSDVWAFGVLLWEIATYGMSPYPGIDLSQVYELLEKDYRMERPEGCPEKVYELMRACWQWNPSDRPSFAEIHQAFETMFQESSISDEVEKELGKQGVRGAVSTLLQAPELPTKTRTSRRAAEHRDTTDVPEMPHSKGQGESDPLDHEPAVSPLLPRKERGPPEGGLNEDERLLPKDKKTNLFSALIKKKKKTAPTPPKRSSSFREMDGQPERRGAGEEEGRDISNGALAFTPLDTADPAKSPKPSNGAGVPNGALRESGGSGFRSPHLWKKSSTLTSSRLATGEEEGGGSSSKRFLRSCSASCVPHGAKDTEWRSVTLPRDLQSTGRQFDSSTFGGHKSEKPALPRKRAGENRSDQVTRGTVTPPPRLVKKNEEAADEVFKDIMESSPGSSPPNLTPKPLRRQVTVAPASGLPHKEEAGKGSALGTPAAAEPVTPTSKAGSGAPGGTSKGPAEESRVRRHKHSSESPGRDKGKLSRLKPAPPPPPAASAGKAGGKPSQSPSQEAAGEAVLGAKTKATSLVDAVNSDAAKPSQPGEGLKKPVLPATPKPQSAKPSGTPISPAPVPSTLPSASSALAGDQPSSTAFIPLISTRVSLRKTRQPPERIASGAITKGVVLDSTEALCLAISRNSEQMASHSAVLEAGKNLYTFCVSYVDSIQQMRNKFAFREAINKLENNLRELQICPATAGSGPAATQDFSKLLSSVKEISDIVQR
Sequence of Ras and Rab interactor 1/Tyrosine-protein kinase ABL1 (Q13671 whole entry): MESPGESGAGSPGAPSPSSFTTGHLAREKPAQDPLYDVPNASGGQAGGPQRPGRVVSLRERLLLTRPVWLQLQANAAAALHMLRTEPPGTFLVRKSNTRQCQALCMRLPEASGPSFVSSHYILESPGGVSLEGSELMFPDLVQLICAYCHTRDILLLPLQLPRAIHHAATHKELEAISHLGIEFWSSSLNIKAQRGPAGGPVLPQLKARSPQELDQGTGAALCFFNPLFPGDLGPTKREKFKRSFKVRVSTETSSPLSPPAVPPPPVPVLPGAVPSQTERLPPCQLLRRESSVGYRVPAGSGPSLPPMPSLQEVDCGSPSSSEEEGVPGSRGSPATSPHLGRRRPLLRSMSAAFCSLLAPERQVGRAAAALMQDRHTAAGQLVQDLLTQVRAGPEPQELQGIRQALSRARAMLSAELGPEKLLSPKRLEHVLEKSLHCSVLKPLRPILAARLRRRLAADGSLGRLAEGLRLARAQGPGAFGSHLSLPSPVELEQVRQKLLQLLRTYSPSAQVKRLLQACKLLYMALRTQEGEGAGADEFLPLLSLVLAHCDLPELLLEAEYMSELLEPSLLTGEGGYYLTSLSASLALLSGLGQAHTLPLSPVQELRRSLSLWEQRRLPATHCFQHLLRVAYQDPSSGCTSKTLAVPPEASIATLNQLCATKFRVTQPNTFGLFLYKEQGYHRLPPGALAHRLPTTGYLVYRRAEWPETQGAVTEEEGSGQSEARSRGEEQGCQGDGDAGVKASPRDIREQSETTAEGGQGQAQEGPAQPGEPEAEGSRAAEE

Cc1ccc(OCCCCn2cnc3ccccc32)c(C)c1
IC50 [1]: 1.76 µM (active) | IC50 (Protein skinhead-1): > 100 µM (inactive) | EC50 [2]: 70.8 µM (active) | EC50 [3]: 41.2 µM (active) | IC50 [4]: 2.29 µM (active)

Cc1ccc(/C=C2\C(=O)NC(=S)N(c3ccccc3F)C2=O)s1
IC50 [5]: > 80 µM (inactive) | IC50 [6]: 4.91 µM (active)

COc1cc(/C=C/C(=O)c2ccc(NS(=O)(=O)c3ccc(C)cc3)cc2)cc(OC)c1O
CC50 (Vero [7]): 14.5 µM (active) | AC50 [8]: 2.27 µM (active) | IC50 (Vero [9]): > 25 µM (active)

N=c1c(C(=O)NCc2ccco2)cc2c(=O)n3ccccc3nc2n1CCc1ccccc1
IC50 [1]: 12.4 µM (inactive) | IC50 (Estrogen receptor beta [10]): > 50 µM (not active) | IC50 (Estrogen receptor beta [11]): > 50 µM (not active) | IC50 [4]: 0.861 µM (active)

CCc1ccc(N2C(=O)NC(=O)/C(=C\C=C\c3ccco3)C2=O)cc1
AC50 [12]: 4.24 µM (active) | AC50 [8]: 1.96 µM (active) | IC50 (cells): 19.6 µM (active) | AC50 [13]: 7.53 µM (active) | AC50 [14]: > 20 µM (inactive) | CC50 [15]: > 40 µM (active) | AC50 (A-375): 21.6 µM (active)

CCOC(=O)c1ccc(-c2ccc3ncnc(N(C)Cc4sccc4C)c3c2)o1
AC50 [16]: 1.47 µM (active)

Cc1occc1CNc1ncnc2ccc(-c3ccc4c(c3)OCO4)cc12
AC50 [16]: 0.0118 µM (active)

COc1ccc(-c2c[n+]3c4n2CCCCC4=C(c2ccccc2)C3)cc1
AC50 (Cytochrome P450 3A4): 3.16 µM (inconclusive) | AC50 (Cytochrome P450 1A2): 28.2 µM (inconclusive) | AC50 (Cytochrome P450 2C19): 3.55 µM (inconclusive) | CC50 [17]: 28.1 µM (active) | IC50 [1]: 2.76 µM (active) | EC50 [18]: 0.169 µM (active) | EC50 [19]: > 60 µM (not active) | AC50 (Cytochrome P450 2C9): 0.0316 µM (inconclusive) | IC50 (Prothrombin): > 50 µM (not active) | IC50 [4]: > 16 µM (inactive)

COc1ccc(Cc2c(-c3ccc(OC)c(OC)c3)nc3ccc(C)cn23)c(C)c1
AC50 [20]: 2.73 µM (active)

COC(=O)c1ccc(CSc2nnc(-c3ccccc3)n2C)o1
IC50 [21]: 14.1 µM (inactive)

Clc1ccc(CNc2ccnc(-c3ccc4[nH]ncc4c3)n2)cc1Cl
AC50 [16]: 0.00784 µM (active)

CCCOc1ccc(/C=C/C(=O)N2CCN(C(=O)c3ccco3)CC2)cc1OC
IC50 [21]: > 73.5 µM (inactive)

COC(=O)C[C@H]1CC[C@@H]2[C@H](COC[C@@H](O)CN2C(=O)Nc2cccc(F)c2)O1
AC50 [20]: 13.7 µM (active)

Cc1ccccc1OCC(=O)N/N=C/c1ccc(Sc2nc3ccccc3s2)o1
IC50 [5]: > 80 µM (inactive)
